The text below walks through data of ChEMBL document CHEMBL5108002, “Design, synthesis, and biological evaluation of novel 7-substituted 10,11-methylenedioxy-camptothecin derivatives against drug-resistant small-cell lung cancer in vitro and in vivo” (Eur J Med Chem, 2022).

The source made the active and inactive calls. The rule behind the calls is not given here.

A word on the IC50: it is the point on the concentration scale where inhibition reaches its midpoint.

Assay [1] has as its system NCI-H446. Kind of assay: Antitumor activity against etoposide/cisplatin combination-resistant human NCI-H446 cells xenografted in BALB/c nude mouse assessed as average tumor mass at 3 mg/kg, IG administered once a week and measured 3 times a week. Type of assay: functional. (A xenograft is tissue or cells of one species grown in another, often human tumour cells in immunodeficient mice.)

For assay [2], the system named is NCI-H446. As to the kind of experiment: Induction of apoptosis in human NCI-H446 cells assessed as increase in cleaved-caspase 9 protein expression at 0.1 to 100 nM measured after 24 to 48 hrs by Western blot analysis. Type of assay: functional, cell-based. The settings on record: dose 0.1-100 nM, time 24-48 hrs.
For assay [3], the system named is NCI-H446. Kind of assay: Antitumor activity against etoposide/cisplatin combination-resistant human NCI-H446 cells xenografted in BALB/c nude mouse assessed as tumor growth inhibition at 3 mg/kg, IG administered once a week and measured 3 times a week relative to control. Format: functional. The settings on record: NCI-H446, po, read-out: TGI.
For assay [4], the system named is NCI-H446. As to the kind of experiment: Induction of apoptosis in human NCI-H446 cells assessed as reduction in survivin mRNA level at 0.1 to 100 nM incubated for 24 hrs by RT-PCR analysis. Type of assay: functional, cell-based. The settings on record: dose 0.1-100 nM.
In assay [5] the test system is NCI-H446. As to the kind of experiment: Induction of apoptosis in human NCI-H446 cells assessed as late apoptotic cells at 0.1 nM incubated for 24 hrs by AnnexinV-FITC/PI staining based flow cytometry analysis (reference value: 0.37 %). Type of assay: functional. Background: A flow cytometer gives signals particle by particle.
Assay [6] has as its system H69AR. Kind of assay: Induction of apoptosis in human NCI-H69AR cells assessed as increase in cleaved-PARP protein expression at 0.1 to 100 nM measured after 24 hrs by Western blot analysis. Format: functional, cell-based. The note with it: dose 0.1-100 nM. A general note: A western blot detects proteins with antibodies after separation by electrophoresis.
In assay [7] the test system is H69AR. As to the kind of experiment: Induction of apoptosis in human NCI-H69AR cells assessed as reduction in Bcl-2 mRNA expression at 0.1 to 100 nM incubated for 24 hrs by RT-PCR analysis. Format: functional, cell-based. The note with it: dose 0.1-100 nM.
Another assay concerns MCF7. As to the kind of experiment: Antiproliferative activity against human MCF7 cells assessed as inhibition of cell growth incubated for 72 hrs by SRB assay. The settings on record: MCF7, 72 h. Format: functional, cell-based.
For another assay, the system named is NCI-H69. Kind of assay: Induction of apoptosis in human NCI-H69 cells assessed as increase in cleaved-caspase 9 protein expression at 0.1 to 100 nM measured after 24 hrs by Western blot analysis. Type of assay: functional, cell-based. The note with it: dose 0.1-100 nM.
For assay [8], the system named is NCI-H446. As to the kind of experiment: Induction of apoptosis in human NCI-H446 cells assessed as inhibition of Mcl-1 protein expression incubated for 24 hrs by Western blot analysis. Format: functional, cell-based. The settings on record: dose 0.1-100 nM.
The next assay concerns U-87 MG. As to the kind of experiment: Antiproliferative activity against human U87 cells assessed as inhibition of cell growth incubated for 72 hrs by SRB assay. Format: functional, cell-based, U-87MG ATCC.
Assay [9] relates to H69AR. Kind of assay: Induction of apoptosis in human NCI-H69AR cells assessed as reduction in survivin mRNA expression at 0.1 to 100 nM incubated for 24 hrs by RT-PCR analysis. Format: functional, cell-based. The settings on record: dose 0.1-100 nM.

Take `CC[C@@]1(O)C(=O)OCc2c1cc1n(c2=O)Cc2c-1nc1cc3c(cc1c2-c1ccoc1)OCO3`: the Activity in the assay on NCI-H446 [1] turned out to be 0.23 g; in the assay with NCI-H446 [5], 3.73%. In addition, the outcome in the assay on NCI-H446 [2], in the assay on NCI-H446 [4], with H69AR [6], with H69AR [7], in the assay with NCI-H69 and in the assay with H69AR [9] was Active. Moreover, the inhibition in vivo at 3 mg/kg in the assay on NCI-H446 [3] turned out to be 84.5%. The values for the IC50 with MCF7 and with U-87 MG were 9.49 nM and 19.1 nM, respectively. Also, the inhibition entry in the assay with NCI-H446 [8] was “Active”.
